# Reference: the supplement of paper PMC10307832
# What was measured:
# Assay in all cases: relative viability (nuclei count vs DMSO), 5 days (fraction); higher = more cells survive
# HCC-44 = system: HCC-44
# In short: (§1)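 Dosing by pin tool came one day after lung cancer cell lines were seeded in 1536-well plates, using either one drug or a fixed anchor-drug dose plus five library-drug doses (not always all listed) in √10 steps. After 5 days, nuclei were counted on 4× images. Relative viability is treated-well nuclei count divided by vehicle-well nuclei count, and values are medians of duplicate plates.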
# LCLC-103H = system: LCLC-103H
# In short: as §1
# EPLC-272H = system: EPLC-272H
# In short: as §1
# NCI-H2023 = system: NCI-H2023
# In short: as §1
# NCI-H650 = system: NCI-H650
# In short: as §1
# NCI-H2405 = system: NCI-H2405
# In short: as §1
# ChaGo-K-1 = system: ChaGo-K-1
# In short: as §1
# NCI-H23 = system: NCI-H23
# In short: as §1
# NCI-H1437 = system: NCI-H1437
# In short: as §1
# NCI-H2009 = system: NCI-H2009
# In short: as §1
# EMC-BAC-2 = system: EMC-BAC-2
# In short: as §1
# NCI-H441 = system: NCI-H441
# In short: as §1
# NCI-H2347 = system: NCI-H2347
# In short: as §1
# NCI-H520 = system: NCI-H520
# In short: as §1
# LOU-NH91 = system: LOU-NH91
# In short: as §1
# HOP-62 = system: HOP-62
# In short: as §1
# NCI-H2126 = system: NCI-H2126
# In short: as §1
# NCI-H727 = system: NCI-H727
# In short: as §1
# SW 1573 = system: SW 1573
# In short: as §1
# NCI-H2170 = system: NCI-H2170
# In short: as §1
# NCI-H460 = system: NCI-H460
# In short: as §1
# NCI-H647 = system: NCI-H647
# In short: as §1
# NCI-H1793 = system: NCI-H1793
# In short: as §1
compound,measurement,setting,value
O=c1[nH]c2ccccc2n1C1CCN(CCCC(c2ccc(F)cc2)c2ccc(F)cc2)CC1 [Pimozide] + CC(=O)Nc1cccc(-n2c(=O)n(C3CC3)c(=O)c3c(Nc4ccc(I)cc4F)n(C)c(=O)c(C)c32)c1 [Trametinib] (partner 0.02 µM),relative viability,HCC-44; first compound 0.08 µM,1.1
same,relative viability,HCC-44; first compound 0.253 µM,1.18
same,relative viability,HCC-44; first compound 0.8 µM,0.913
same,relative viability,HCC-44; first compound 2.53 µM,0.979
same,relative viability,HCC-44; first compound 8 µM,0.887
same,relative viability,LCLC-103H; first compound 0.08 µM,0.676
same,relative viability,LCLC-103H; first compound 0.253 µM,0.656
same,relative viability,LCLC-103H; first compound 0.8 µM,0.642
same,relative viability,LCLC-103H; first compound 2.53 µM,0.631
same,relative viability,LCLC-103H; first compound 8 µM,0.669
same,relative viability,EPLC-272H; first compound 0.08 µM,0.282
same,relative viability,EPLC-272H; first compound 0.253 µM,0.26
same,relative viability,EPLC-272H; first compound 0.8 µM,0.27
same,relative viability,EPLC-272H; first compound 2.53 µM,0.263
same,relative viability,EPLC-272H; first compound 8 µM,0.233
same,relative viability,NCI-H2023; first compound 0.08 µM,0.584
same,relative viability,NCI-H2023; first compound 0.253 µM,0.532
same,relative viability,NCI-H2023; first compound 0.8 µM,0.582
same,relative viability,NCI-H2023; first compound 2.53 µM,0.429
same,relative viability,NCI-H2023; first compound 8 µM,0.362
same,relative viability,NCI-H650; first compound 0.08 µM,0.97
same,relative viability,NCI-H650; first compound 0.253 µM,0.962
same,relative viability,NCI-H650; first compound 0.8 µM,0.885
same,relative viability,NCI-H650; first compound 2.53 µM,1.06
same,relative viability,NCI-H650; first compound 8 µM,0.974
same,relative viability,NCI-H2405; first compound 0.08 µM,0.606
same,relative viability,NCI-H2405; first compound 0.253 µM,0.65
same,relative viability,NCI-H2405; first compound 0.8 µM,0.621
same,relative viability,NCI-H2405; first compound 2.53 µM,0.491
same,relative viability,NCI-H2405; first compound 8 µM,0.36
same,relative viability,ChaGo-K-1; first compound 0.08 µM,0.873
same,relative viability,ChaGo-K-1; first compound 0.253 µM,0.871
same,relative viability,ChaGo-K-1; first compound 0.8 µM,0.851
same,relative viability,ChaGo-K-1; first compound 2.53 µM,0.872
same,relative viability,ChaGo-K-1; first compound 8 µM,0.874
same,relative viability,NCI-H23; first compound 0.08 µM,0.377
same,relative viability,NCI-H23; first compound 0.253 µM,0.369
same,relative viability,NCI-H23; first compound 0.8 µM,0.291
same,relative viability,NCI-H23; first compound 2.53 µM,0.369
same,relative viability,NCI-H23; first compound 8 µM,0.318
same,relative viability,NCI-H1437; first compound 0.08 µM,0.652
same,relative viability,NCI-H1437; first compound 0.253 µM,0.495
same,relative viability,NCI-H1437; first compound 0.8 µM,0.441
same,relative viability,NCI-H1437; first compound 2.53 µM,0.376
same,relative viability,NCI-H1437; first compound 8 µM,0.412
same,relative viability,NCI-H2009; first compound 0.08 µM,0.256
same,relative viability,NCI-H2009; first compound 0.253 µM,0.276
same,relative viability,NCI-H2009; first compound 0.8 µM,0.284
same,relative viability,NCI-H2009; first compound 2.53 µM,0.321
same,relative viability,NCI-H2009; first compound 8 µM,0.225
same,relative viability,EMC-BAC-2; first compound 0.08 µM,0.814
same,relative viability,EMC-BAC-2; first compound 0.253 µM,0.891
same,relative viability,EMC-BAC-2; first compound 0.8 µM,0.792
same,relative viability,EMC-BAC-2; first compound 2.53 µM,0.815
same,relative viability,EMC-BAC-2; first compound 8 µM,0.802
same,relative viability,NCI-H441; first compound 0.08 µM,0.425
same,relative viability,NCI-H441; first compound 0.253 µM,0.463
same,relative viability,NCI-H441; first compound 0.8 µM,0.335
same,relative viability,NCI-H441; first compound 2.53 µM,0.565
same,relative viability,NCI-H441; first compound 8 µM,0.315
same,relative viability,NCI-H2347; first compound 0.08 µM,0.288
same,relative viability,NCI-H2347; first compound 0.253 µM,0.307
same,relative viability,NCI-H2347; first compound 0.8 µM,0.287
same,relative viability,NCI-H2347; first compound 2.53 µM,0.278
same,relative viability,NCI-H2347; first compound 8 µM,0.285
same,relative viability,NCI-H520; first compound 0.08 µM,0.632
same,relative viability,NCI-H520; first compound 0.253 µM,0.68
same,relative viability,NCI-H520; first compound 0.8 µM,0.627
same,relative viability,NCI-H520; first compound 2.53 µM,0.601
same,relative viability,NCI-H520; first compound 8 µM,0.54
same,relative viability,LOU-NH91; first compound 0.08 µM,0.649
same,relative viability,LOU-NH91; first compound 0.253 µM,0.822
same,relative viability,LOU-NH91; first compound 0.8 µM,0.755
same,relative viability,LOU-NH91; first compound 2.53 µM,0.841
same,relative viability,LOU-NH91; first compound 8 µM,0.819
same,relative viability,HOP-62; first compound 0.08 µM,0.362
same,relative viability,HOP-62; first compound 0.253 µM,0.347
same,relative viability,HOP-62; first compound 2.53 µM,0.328
same,relative viability,HOP-62; first compound 8 µM,0.389
same,relative viability,NCI-H2126; first compound 0.08 µM,0.589
same,relative viability,NCI-H2126; first compound 0.253 µM,0.584
same,relative viability,NCI-H2126; first compound 0.8 µM,0.566
same,relative viability,NCI-H2126; first compound 2.53 µM,0.592
same,relative viability,NCI-H2126; first compound 8 µM,0.533
same,relative viability,NCI-H727; first compound 0.08 µM,0.396
same,relative viability,NCI-H727; first compound 0.253 µM,0.426
same,relative viability,NCI-H727; first compound 0.8 µM,0.383
same,relative viability,NCI-H727; first compound 2.53 µM,0.443
same,relative viability,NCI-H727; first compound 8 µM,0.403
same,relative viability,SW 1573; first compound 0.08 µM,0.645
same,relative viability,SW 1573; first compound 0.253 µM,0.448
same,relative viability,SW 1573; first compound 0.8 µM,0.394
same,relative viability,SW 1573; first compound 2.53 µM,0.308
same,relative viability,SW 1573; first compound 8 µM,0.344
same,relative viability,NCI-H2170; first compound 0.08 µM,0.943
same,relative viability,NCI-H2170; first compound 0.253 µM,0.874
same,relative viability,NCI-H2170; first compound 0.8 µM,0.832
same,relative viability,NCI-H2170; first compound 2.53 µM,0.83
same,relative viability,NCI-H2170; first compound 8 µM,0.857
same,relative viability,NCI-H460; first compound 0.08 µM,0.239
same,relative viability,NCI-H460; first compound 0.253 µM,0.0857
same,relative viability,NCI-H460; first compound 0.8 µM,0.131
same,relative viability,NCI-H460; first compound 2.53 µM,0.185
same,relative viability,NCI-H460; first compound 8 µM,0.14
same,relative viability,NCI-H647; first compound 0.08 µM,0.555
same,relative viability,NCI-H647; first compound 0.253 µM,0.491
same,relative viability,NCI-H647; first compound 0.8 µM,0.476
same,relative viability,NCI-H647; first compound 2.53 µM,0.316
same,relative viability,NCI-H647; first compound 8 µM,0.353
same,relative viability,NCI-H1793; first compound 0.08 µM,0.478
same,relative viability,NCI-H1793; first compound 0.253 µM,0.391
same,relative viability,NCI-H1793; first compound 0.8 µM,0.391
same,relative viability,NCI-H1793; first compound 2.53 µM,0.44
same,relative viability,NCI-H1793; first compound 8 µM,0.515
